Assay results from US11932658B2 (BRISTOL-MYERS SQUIBB COMPANY, priority 2016, dated 2024).

Target: T1, PAR4 (Homo sapiens, UniProt Q96RI0)
T1 construct: expressed in transfected cells; host or cells: HEK293 PAR4 Clone 1.2A (BMS Arctic ID 383940)
T1 sequence (Q96RI0 18-385): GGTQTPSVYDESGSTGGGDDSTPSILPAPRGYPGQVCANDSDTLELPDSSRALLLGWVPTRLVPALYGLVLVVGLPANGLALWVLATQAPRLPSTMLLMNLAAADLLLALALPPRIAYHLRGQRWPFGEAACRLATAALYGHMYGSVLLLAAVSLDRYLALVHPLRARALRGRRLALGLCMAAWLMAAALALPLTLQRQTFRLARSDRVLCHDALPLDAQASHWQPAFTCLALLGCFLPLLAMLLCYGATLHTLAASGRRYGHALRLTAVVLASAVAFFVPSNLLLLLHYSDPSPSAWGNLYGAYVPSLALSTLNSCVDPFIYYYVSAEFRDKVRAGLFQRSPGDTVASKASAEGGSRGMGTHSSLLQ
Test: PAR4 FLIPR assay (antagonism of agonist peptide-induced calcium mobilization)
Assay type: cell-based
Text: The FLIPR assay is an exemplary in vitro assay for measuring the activity of the PAR4 antagonists of the present invention. In this assay, intracellular calcium mobilization is induced in PAR4 expressing cells by a PAR4 agonist and calcium mobilization is monitored.
HEK293 cells stably expressing PAR4 were generated by a standard method of transfection of human PAR4 (F2R23) cDNA expression vector and selected based on PAR4 protein expression or mRNA expression. […] These cells also express endogenous PAR1 and can elicit calcium signal upon stimulation with PAR1 agonist peptide. Therefore, the same cells were also used to determine selectivity against PAR1 and agonist activity for both receptors. Cells from HEK293 PAR4 Clone 1.2A (BMS Arctic ID 383940) were propagated and used for calcium mobilization studies.
FLIPR-based calcium mobilization assay in HEK293 cells was used to measure PAR4 antagonism, agonism, and selectivity against PAR1. The activity of the PAR4 antagonists of the present invention were tested in PAR4 expressing cells by monitoring H-Ala-Phe(4-F)-Pro-Gly-Trp-Leu-Val-Lys-Asn-Gy-NH2-induced intracellular calcium mobilization. Counter screens for agonist activity and PAR1 antagonist activity were also performed. Briefly, PAR1/PAR4-expressing HEK293 cells were grown in DMEM (Life Technology, Grand Island, NY) containing 10% heat-inactivated FBS, 1% Penicillin-Streptomycin, 10 μg/mL blasticidin, and 100 μg/mL Zeocin at 37° C. with 5% CO2. Cells were plated overnight prior to the experiment in a black 384-well Purecoat Amine clear bottom plate (Becton Dickinson Biosciences, San Jose, CA) at 10,000 cells/well in 30 μL growth medium and incubated in a humidified chamber at 37° C. with 5% CO2 overnight. Prior to compound addition, the cell medium was replaced with 40 μL of 1× calcium and magnesium-containing Hank's Balanced Saline Solution (HBSS) (with 20 mM HEPES) and 1:1000 diluted fluorescent calcium indicator (Codex Biosolutions, Gaithersburg, MD). After a 30 minute incubation period at 37° C. and a further 30 minute incubation and equilibration period at room temperature, 20 μL test compound (diluted in 1×HBSS buffer) was added at various concentrations at 0.17% dimethyl sulfoxide (DMSO) final concentration. Changes in fluorescence intensity were measured using a Functional Drug Screening System (FDSS, Hamamatsu, Japan) to determine agonist activities. The cells were then incubated for 30 minutes at room temperature followed by addition of 20 μL of agonist peptide for antagonist activity measurement. […] Compound potency was derived from 11-point concentration-response curves.

Row | SMILES | IC50 [nM]
1 | COc1cnc2c(-c3nc4c(Cl)cc5c(c4s3)OC[C@H](COC(=O)Nc3cccc(C#N)c3)O5)cc(C)cc2n1 [Example 27, (R)-(4-chloro-2-(2-methoxy-7-methylquinoxalin-5-yl)-7,8-dihydro-[1,4]dioxino[2′,3′:3,4]benzo[1,2-d]thiazol-7-yl)methyl (3-cyanophenyl)carbamate] | 2.2
2 | COc1cnc2c(-c3nc4c(Cl)cc5c(c4s3)OC[C@H](COC(=O)Nc3cncc(F)c3)O5)cc(C)cc2n1 [Example 28, (R)-(4-chloro-2-(2-methoxy-7-methylquinoxalin-5-yl)-7,8-dihydro-[1,4]dioxino[2′,3′:3,4]benzo[1,2-d]thiazol-7-yl)methyl (5-fluoropyridin-3-yl)carbamate] | 480
3 | COc1cnc2c(-c3nc4c(Cl)cc5c(c4s3)OC[C@H](COC(=O)Nc3ccc(F)nc3)O5)cc(C)cc2n1 [Example 29, (R)-(4-chloro-2-(2-methoxy-7-methylquinoxalin-5-yl)-7,8-dihydro-[1,4]dioxino[2′,3′:3,4]benzo[1,2-d]thiazol-7-yl)methyl (6-fluoropyridin-3-yl)carbamate] | 2.9
4 | COc1cnc2c(-c3nc4c(Cl)cc5c(c4s3)OC[C@H](COC(=O)Nc3ccncc3)O5)cc(C)cc2n1 [Example 30, (R)-(4-chloro-2-(2-methoxy-7-methylquinoxalin-5-yl)-7,8-dihydro-[1,4]dioxino[2′,3′:3,4]benzo[1,2-d]thiazol-7-yl)methyl pyridin-4-ylcarbamate] | 3.6

Other lines, results leading:

Row | IC50 [nM] | SMILES
5 | 0.9 | COc1cnc2c(-c3nc4c(Cl)cc5c(c4s3)OC[C@H](COC(=O)Nc3cccnc3)O5)cc(C)cc2n1 [Example 31, (R)-(4-chloro-2-(2-methoxy-7-methylquinoxalin-5-yl)-7,8-dihydro-[1,4]dioxino[2′,3′:3,4]benzo[1,2-d]thiazol-7-yl)methyl pyridin-3-ylcarbamate]
6 | 1.8 | COc1cnc2c(-c3nc4c(Cl)cc5c(c4s3)OC[C@H](COC(=O)Nc3ccc(Cl)nc3)O5)cc(C)cc2n1 [Example 32, (R)-(4-chloro-2-(2-methoxy-7-methylquinoxalin-5-yl)-7,8-dihydro-[1,4]dioxino[2′,3′:3,4]benzo[1,2-d]thiazol-7-yl)methyl (6-chloropyridin-3-yl)carbamate]
7 | 2.8 | COc1cnc2c(-c3nc4c(Cl)cc5c(c4s3)OC[C@H](COC(=O)Nc3ccnc(C)c3)O5)cc(C)cc2n1 [Example 33, (R)-(4-chloro-2-(2-methoxy-7-methylquinoxalin-5-yl)-7,8-dihydro-[1,4]dioxino[2′,3′:3,4]benzo[1,2-d]thiazol-7-yl)methyl (2-methylpyridin-4-yl)carbamate]
8 | 3.3 | COc1cnc2c(-c3nc4c(Cl)cc5c(c4s3)OC[C@H](COC(=O)Nc3ccnnc3)O5)cc(C)cc2n1 [Example 34, (R)-(4-chloro-2-(2-methoxy-7-methylquinoxalin-5-yl)-7,8-dihydro-[1,4]dioxino[2′,3′:3,4]benzo[1,2-d]thiazol-7-yl)methyl pyridazin-4-ylcarbamate]
9 | 1.4 | COc1cnc2c(-c3nc4c(Cl)cc5c(c4s3)OC[C@H](COC(=O)Nc3ccc(C#N)nc3)O5)cc(C)cc2n1 [Example 35, (R)-(4-chloro-2-(2-methoxy-7-methylquinoxalin-5-yl)-7,8-dihydro-[1,4]dioxino[2′,3′:3,4]benzo[1,2-d]thiazol-7-yl)methyl (6-cyanopyridin-3-yl)carbamate]
10 | 1.7 | COc1cc(NC(=O)OC[C@H]2COc3c(cc(Cl)c4nc(-c5cc(C)cc6nc(OC)cnc56)sc34)O2)ccn1 [Example 36, (R)-(4-chloro-2-(2-methoxy-7-methylquinoxalin-5-yl)-7,8-dihydro-[1,4]dioxino[2′,3′:3,4]benzo[1,2-d]thiazol-7-yl)methyl (2-methoxypyridin-4-yl)carbamate]
